Assay results reported in patent publication US9975861B2, “Dual inhibitor compounds for use in the treatment of neurodegenerative disorders and alzheimer's disease” (FONDAZIONE ISTITUTO ITALIANO DI TECNOLOGIA, priority 2014, dated 2018).

Assays:
β-secretase (BACE-1) = β-secretase (BACE-1) (Homo sapiens (Human), UniProt P56817); test: Inhibition of BACE-1 (fluorogenic APP-mimicking peptide substrate); details: BACE-1 IC50 (μM), substrate 3 μM, 1 hour pre-incubation at rt, 15 minutes at 37° C.
Experimental: β-secretase (BACE-1, Sigma-Aldrich) inhibition studies were performed by employing a peptide mimicking APP sequence as substrate (Methoxycoumarin-[sequence]dinitrophenyl, M-2420, Bachem, Germany). The following procedure was employed: 5 μL of test compounds (or DMSO, if preparing a control well) were pre-incubated with 175 μL of enzyme (in 20 mM sodium acetate containing 3-[(3-Cholamidopropyl)dimethylammonio]-1-propanesulfonate (CHAPS) 0.1% w/v) for 1 hour at rt. The substrate (3 μM, final concentration) was then added and left to react for 15 minutes at 37° C. The fluorescence signal was read at λem=405 nm (λexc=320 nm) using a Fluoroskan Ascent. […] The fluorescence intensities with and without inhibitor were compared and the percent inhibition due to the presence of test compounds was calculated. The background signal was measured in control wells containing all the reagents, except BACE-1 and subtracted. The % inhibition due to the presence of increasing test compound concentration was calculated by the following expression: 100−(IFi/IFo×100) where IFi and IFo are the fluorescence intensities obtained for BACE-1 in the presence and in the absence of inhibitor, respectively. […] The linear regression parameters were determined and the IC50 extrapolated (GraphPad Prism 4.0, GraphPad Software Inc.).

Human recombinant GSK-3β = Human recombinant GSK-3β (Homo sapiens (Human), UniProt P49841); test: Inhibition of GSK-3β (Kinase-Glo luminescent kinase assay); format: biochemical; details: 1 μM ATP, 25 μM substrate, 30 minutes at 30° C.
Human recombinant GSK-3β, sequence (P49841 whole entry): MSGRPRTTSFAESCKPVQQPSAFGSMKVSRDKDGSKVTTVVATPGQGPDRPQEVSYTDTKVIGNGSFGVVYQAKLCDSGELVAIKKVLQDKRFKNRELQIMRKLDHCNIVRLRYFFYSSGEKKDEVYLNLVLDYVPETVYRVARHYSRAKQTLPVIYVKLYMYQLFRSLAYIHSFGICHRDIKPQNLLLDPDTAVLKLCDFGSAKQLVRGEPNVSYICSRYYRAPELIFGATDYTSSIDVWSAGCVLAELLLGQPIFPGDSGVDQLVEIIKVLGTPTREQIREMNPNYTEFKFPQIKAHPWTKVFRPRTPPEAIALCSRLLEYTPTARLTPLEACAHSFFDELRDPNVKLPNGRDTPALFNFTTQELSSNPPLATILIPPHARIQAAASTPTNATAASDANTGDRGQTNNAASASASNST
Experimental: Human recombinant GSK-3β was purchased from Millipore (Millipore Iberica S.A.U.) The prephosphorylated polypeptide substrate was purchased from Millipore (Millipore Iberica SAU). Kinase-Glo Luminescent Kinase Assay was obtained from Promega (Promega Biotech Iberica, SL). ATP and all other reagents were from Sigma-Aldrich. Assay buffer contained 50 mM 4-(2-hydroxyethyl)-1-piperazineethanesulfonic acid (HEPES) (pH 7.5), 1 mM ethylenediaminetetraacetic acid (EDTA), 1 mM ethylene glycol tetraacetic acid (EGTA), and 15 mM magnesium acetate. The method developed by Baki was followed [Baki et al. Assay and Drug Development Technologies 2007, 5(1),75-83] to analyze the inhibition of GSK-3β. Kinase-Glo assays were performed in assay buffer using white 96-well plates. In a typical assay, 10 μL (10 μM) of test compound (dissolved in DMSO at 1 mM concentration and diluted in advance in assay buffer to the desired concentration) and 10 μL (20 ng) of enzyme were added to each well followed by 20 μL of assay buffer containing 25 μM substrate and 1 μM adenosine triphosphate (ATP). […] After a 30 minutes incubation at 30° C., the enzymatic reaction was stopped with 40 μL of Kinase-Glo reagent. Glow-type luminescence was recorded after 10 minutes using a Fluoroskan Ascent multimode reader.
The activity is proportional to the difference of the total and consumed ATP.

β-secretase (BACE-1), sequence (P56817 46-501): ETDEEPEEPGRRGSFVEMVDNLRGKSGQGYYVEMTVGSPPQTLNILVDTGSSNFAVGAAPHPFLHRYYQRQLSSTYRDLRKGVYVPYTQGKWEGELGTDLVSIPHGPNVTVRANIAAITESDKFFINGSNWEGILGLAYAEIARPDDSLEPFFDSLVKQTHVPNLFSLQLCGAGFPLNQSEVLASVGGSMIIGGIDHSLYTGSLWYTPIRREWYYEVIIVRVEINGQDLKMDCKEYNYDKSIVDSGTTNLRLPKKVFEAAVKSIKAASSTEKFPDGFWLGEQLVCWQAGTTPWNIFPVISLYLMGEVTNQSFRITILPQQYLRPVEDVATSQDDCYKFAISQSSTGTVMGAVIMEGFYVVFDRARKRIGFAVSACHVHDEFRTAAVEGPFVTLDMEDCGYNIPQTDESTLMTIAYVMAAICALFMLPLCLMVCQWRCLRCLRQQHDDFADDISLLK

Q: For `CCCNC1=NC(c2ccc(F)cc2)NC(=O)N1` (centres unmarked) [Example 6, 4-(4-fluorophenyl)-6-(propylamino)-3,4-dihydro-1,3,5-triazin-2(1H)-one], which IC50 (β-secretase (BACE-1)) is on record?
A: 36.8 ± 9.85 µM

Q: And the IC50 (Human recombinant GSK-3β)?
A: 4.34 ± 0.63 µM
